Laboratory results as given in PubChem BioAssay AID1963867 (Molecular Pharmacology Branch, DTP, NCI, 2024).

Tested on: KRAS-mutant PDC tumor spheroid with HUVEC/MSC, viability
Assay: Anticancer human tumor 327498-153-R-J2-PDC patient-derived uterine carcinosarcoma cell line growth inhibition [KRAS2]
Conditions: for IC50: curve of first compound; for viability, T/C: stronger effect = lower value
Excerpt: Multicellular complex tumor spheroid response to RAS pathway inhibitors in combination with a targeted agents in patient-derived cell lines with oncogenic KRAS variants from multiple cancer types
A high-throughput screen of multi-cell type tumor spheroids was designed to identify active combinations of targeted small molecules and KRAS pathway inhibitors. Complex spheroids include a stromal component modeled by human endothelial cells (HUVEC) and fibroblasts modeled by human mesenchymal stem cells (MSCs). The concentration ranges selected for each drug and investigational agent were based upon clinically achievable concentrations if the clinical Cmax of the agent was known.
Compounds. The drugs and investigational agents: BI-3406 (NSC825286), BAY-293 (NSC824723), batoprotafib (TNO155; NSC825523), sotorasib (AMG 510; NSC818433), MRTX1257 (NSC819558), elimusertib (BAY 1895344; NSC800525), molibresib (GSK525762; NSC774829), temuterkib (LY3214996; NSC803410), venetoclax (NSC766270), alisertib (NSC759677), olaparib (NSC753686), talazoparib (NSC767125), erdafitinib (NSC781556), ipatasertib (NSC767898), cabozantinib (NSC761068), nintedanib (NSC756659), abemaciclib (NSC768073), docetaxel (NSC628503), trametinib (NSC758246), and sapanisertib (NSC764658) were obtained from the National Cancer Institute (NCI) Developmental Therapeutics Program Chemical Repository. The FDA-approved anticancer drug set is available from the Developmental Therapeutics Program. […] The stock solutions were prepared in dimethyl sulfoxide (DMSO, Sigma-Aldrich, St. Louis, MO, cat. D2650) at 800-fold the tested concentration and stored at -70 degrees C prior to their use. All drugs and investigational agents were tested over a range starting from a high concentration at or near the clinical Cmax and decreasing in half-log increments. If the clinical Cmax for an agent had not been determined, the highest concentration tested was 10 microM.
Cell Culture. All cells were maintained in an incubator at 37 degrees C and 5% CO2 with 95% humidity. The PDC lines were cultured according to standard operating procedures established by the NCI PDMR (https://pdmr.cancer.gov/sops/default.htm). Briefly, all PDCs were thawed and cultured in Matrigel-coated flasks prepared with a working solution of 1X Ham's F-12 nutrient mix, without supplementation (Invitrogen, Waltham, MA, cat. 11765054), 100 U/mL penicillin-streptomycin (Invitrogen, cat. 15140122), and 2.5% Matrigel (Corning Inc., Corning, NY, cat. 354248) for the first three passages. All PDCs were cultured in complete DMEM/F-12 media containing advanced DMEM/F-12 (Invitrogen, cat. 12634028), 4.9% defined fetal bovine serum, heat inactivated (HyClone Laboratories Inc., Logan, UT, cat. SH30070.03HI), 389 ng/mL hydrocortisone (Sigma-Aldrich, cat. H4001), 9.7 ng/mL human EGF recombinant protein (Invitrogen, cat. PHG0313), 23.4 microg/mL adenine (Sigma-Aldrich, cat. A2786), 97.3 U/mL penicillin-streptomycin (Invitrogen, cat. 15140122), 1.9 mM L-glutamine (Invitrogen, cat. 25030081), and 9.7 microM Y-27632 dihydrochloride (Tocris Bioscience, Bristol, United Kingdom, cat. 1254). The PDCs were cultured in complete DMEM/F12 media without 9.7 microM Y-27632 dihydrochloride for at least two passages prior to the screen. The established cell line HOP-62 was cultured in RPMI 1640 medium, HEPES (Invitrogen, cat. 22400105) with 10% defined fetal bovine serum (HyClone Laboratories Inc., cat. SH30070.03) and 2 mM L-glutamine (Invitrogen, cat. 25030081). The pooled donor HUVEC were cultured in endothelial cell growth medium 2 (PromoCell, Heidelberg, Germany, cat. C-22011) and the hMSC were cultured in mesenchymal stem cell growth medium 2 (PromoCell, cat. C-28009). For all experiments, HUVEC and hMSC were used at passages </=5, while the malignant cell lines were used at passages </=15. […]

[1] = second compound 0.1 µM, first compound 0.0316 µM
[2] = second compound 0.1 µM, first compound 0.1 µM
[3] = second compound 0.1 µM, first compound 0.316 µM
[4] = second compound 0.1 µM, first compound 1 µM
[5] = second compound 0.1 µM, first compound 3.16 µM
[6] = second compound 0.1 µM, first compound 10 µM
[7] = second compound 0.316 µM, first compound 0.0316 µM
[8] = second compound 0.316 µM, first compound 0.1 µM
[9] = second compound 0.316 µM, first compound 0.316 µM
[10] = second compound 0.316 µM, first compound 1 µM
[11] = second compound 0.316 µM, first compound 3.16 µM
[12] = second compound 0.316 µM, first compound 10 µM
[13] = second compound 1 µM, first compound 0.0316 µM
[14] = second compound 1 µM, first compound 0.1 µM
[15] = second compound 1 µM, first compound 0.316 µM
[16] = second compound 1 µM, first compound 1 µM
[17] = second compound 1 µM, first compound 3.16 µM
[18] = second compound 1 µM, first compound 10 µM
[19] = second compound 3.16 µM, first compound 0.0316 µM
[20] = second compound 3.16 µM, first compound 0.1 µM
[21] = second compound 3.16 µM, first compound 0.316 µM
[22] = second compound 3.16 µM, first compound 1 µM
[23] = second compound 3.16 µM, first compound 3.16 µM
[24] = second compound 3.16 µM, first compound 10 µM
[25] = second compound 10 µM, first compound 0.0316 µM
[26] = second compound 10 µM, first compound 0.1 µM
[27] = second compound 10 µM, first compound 0.316 µM
[28] = second compound 10 µM, first compound 1 µM
[29] = second compound 10 µM, first compound 3.16 µM
[30] = second compound 10 µM, first compound 10 µM
[31] = second compound 0.1 µM, first compound 0.01 µM
[32] = second compound 0.316 µM, first compound 0.01 µM
[33] = second compound 1 µM, first compound 0.01 µM
[34] = second compound 3.16 µM, first compound 0.01 µM
[35] = second compound 10 µM, first compound 0.01 µM
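Also: spheroids exposed to agents for seven days before reading.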
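For viability, T/C in this document: 100% = DMSO vehicle wells so lower means fewer viable cells.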

## CC(C)NCC(C(=O)N1CCN(c2ncnc3c2C(C)CC3O)CC1)c1ccc(Cl)cc1 (stereo not given) + C=CC(=O)N1CCN(c2nc(=O)n(-c3c(C)ccnc3C(C)C)c3nc(-c4c(O)cccc4F)c(F)cc23)C(C)C1
Second compound 0.1 µM
  IC50: 41.8 nM
Second compound 0.316 µM
  IC50: < 31.6 nM
Second compound 1 µM
  IC50: < 31.6 nM
Second compound 3.16 µM
  IC50: < 31.6 nM
Second compound 10 µM
  IC50: < 31.6 nM
[1]
  viability, T/C: 54.5%
[2]
  viability, T/C: 36.3%
[3]
  viability, T/C: 22.2%
[4]
  viability, T/C: 15.3%
[5]
  viability, T/C: 11.2%
[6]
  viability, T/C: 9.06%
[7]
  viability, T/C: 46.5%
[8]
  viability, T/C: 32.4%
[9]
  viability, T/C: 15.7%
[10]
  viability, T/C: 13.5%
[11]
  viability, T/C: 11%
[12]
  viability, T/C: 7.87%
[13]
  viability, T/C: 48.2%
[14]
  viability, T/C: 29.6%
[15]
  viability, T/C: 19.9%
[16]
  viability, T/C: 13.5%
[17]
  viability, T/C: 10.4%
[18]
  viability, T/C: 7.77%
[19]
  viability, T/C: 39.5%
[20]
  viability, T/C: 27.3%
[21]
  viability, T/C: 17.8%
[22]
  viability, T/C: 12.2%
[23]
  viability, T/C: 9.99%
[24]
  viability, T/C: 8.2%
[25]
  viability, T/C: 33.5%
[26]
  viability, T/C: 18.2%
[27]
  viability, T/C: 14.6%
[28]
  viability, T/C: 9.84%
[29]
  viability, T/C: 9.14%
[30]
  viability, T/C: 3.03%

## CC1COCCN1c1cc(-c2ccnn2C)c2ccnc(-c3ccn[nH]3)c2n1 (stereo not given) + C=CC(=O)N1CCN(c2nc(=O)n(-c3c(C)ccnc3C(C)C)c3nc(-c4c(O)cccc4F)c(F)cc23)C(C)C1
Second compound 0.1 µM
  IC50: 12.9 nM
Second compound 0.316 µM
  IC50: < 10 nM
Second compound 1 µM
  IC50: < 10 nM
Second compound 3.16 µM
  IC50: < 10 nM
Second compound 10 µM
  IC50: < 10 nM
[31]
  viability, T/C: 57%
[1]
  viability, T/C: 24.8%
[2]
  viability, T/C: 8.42%
[3]
  viability, T/C: 5.52%
[4]
  viability, T/C: 6.25%
[5]
  viability, T/C: 5.47%
[32]
  viability, T/C: 46.7%
[7]
  viability, T/C: 21.4%
[8]
  viability, T/C: 9%
[9]
  viability, T/C: 6.3%
[10]
  viability, T/C: 6.22%
[11]
  viability, T/C: 6.06%
[33]
  viability, T/C: 40.1%
[13]
  viability, T/C: 23.3%
[14]
  viability, T/C: 10.6%
[15]
  viability, T/C: 7.15%
[16]
  viability, T/C: 6.94%
[17]
  viability, T/C: 6.78%
[34]
  viability, T/C: 42.5%
[19]
  viability, T/C: 19.8%
[20]
  viability, T/C: 11.8%
[21]
  viability, T/C: 8.81%
[22]
  viability, T/C: 7.29%
[23]
  viability, T/C: 6.89%
[35]
  viability, T/C: 28.5%
[25]
  viability, T/C: 14.4%
[26]
  viability, T/C: 11.9%
[27]
  viability, T/C: 9.29%
[28]
  viability, T/C: 8.01%
[29]
  viability, T/C: 6.76%

## CCN1CCN(Cc2ccc(Nc3ncc(F)c(-c4cc(F)c5nc(C)n(C(C)C)c5c4)n3)nc2)CC1 + C=CC(=O)N1CCN(c2nc(=O)n(-c3c(C)ccnc3C(C)C)c3nc(-c4c(O)cccc4F)c(F)cc23)C(C)C1
Second compound 0.1 µM
  IC50: 5.23 nM
Second compound 0.316 µM
  IC50: < 3.16 nM
Second compound 1 µM
  IC50: < 3.16 nM
Second compound 3.16 µM
  IC50: < 3.16 nM
Second compound 10 µM
  IC50: < 3.16 nM
Second compound 0.1 µM, first compound 0.00316 µM
  viability, T/C: 56.9%
[31]
  viability, T/C: 42.5%
[1]
  viability, T/C: 32.7%
[2]
  viability, T/C: 30.6%
[3]
  viability, T/C: 30.7%
[4]
  viability, T/C: 35.1%
Second compound 0.316 µM, first compound 0.00316 µM
  viability, T/C: 49.6%
[32]
  viability, T/C: 40.5%
[7]
  viability, T/C: 28.2%
[8]
  viability, T/C: 31.1%
[9]
  viability, T/C: 34.9%
[10]
  viability, T/C: 40%
Second compound 1 µM, first compound 0.00316 µM
  viability, T/C: 48.3%
[33]
  viability, T/C: 42%
[13]
  viability, T/C: 30.2%
[14]
  viability, T/C: 33.5%
[15]
  viability, T/C: 39%
[16]
  viability, T/C: 38.3%
Second compound 3.16 µM, first compound 0.00316 µM
  viability, T/C: 49.2%
[34]
  viability, T/C: 39%
[19]
  viability, T/C: 33.8%
[20]
  viability, T/C: 32.7%
[21]
  viability, T/C: 40.5%
[22]
  viability, T/C: 36.9%
Second compound 10 µM, first compound 0.00316 µM
  viability, T/C: 41.9%
[35]
  viability, T/C: 32.5%
[25]
  viability, T/C: 35.6%
[26]
  viability, T/C: 36.2%
[27]
  viability, T/C: 39.3%
[28]
  viability, T/C: 2.69%

## CCNC(=O)CC1N=C(c2ccc(Cl)cc2)c2cc(OC)ccc2-n2c(C)nnc21 (stereo not given) + C=CC(=O)N1CCN(c2nc(=O)n(-c3c(C)ccnc3C(C)C)c3nc(-c4c(O)cccc4F)c(F)cc23)C(C)C1
Second compound 0.1 µM
  IC50: 253 nM
Second compound 0.316 µM
  IC50: 103 nM
Second compound 1 µM
  IC50: 154 nM
Second compound 3.16 µM
  IC50: 117 nM
Second compound 10 µM
  IC50: < 31.6 nM
[1]
  viability, T/C: 58.2%
[2]
  viability, T/C: 58.7%
[3]
  viability, T/C: 45.8%
[4]
  viability, T/C: 40.4%
[5]
  viability, T/C: 29.7%
[6]
  viability, T/C: 24.3%
[7]
  viability, T/C: 55.6%
[8]
  viability, T/C: 50.7%
[9]
  viability, T/C: 45.7%
[10]
  viability, T/C: 33.5%
[11]
  viability, T/C: 28.6%
[12]
  viability, T/C: 22.3%
[13]
  viability, T/C: 60.4%
[14]
  viability, T/C: 51.2%
[15]
  viability, T/C: 51.1%
[16]
  viability, T/C: 33.7%
[17]
  viability, T/C: 26.2%
[18]
  viability, T/C: 22.7%
[19]
  viability, T/C: 55.4%
[20]
  viability, T/C: 48.9%
[21]
  viability, T/C: 46.3%
[22]
  viability, T/C: 35.8%
[23]
  viability, T/C: 26.5%
[24]
  viability, T/C: 19.1%
[25]
  viability, T/C: 41.6%
[26]
  viability, T/C: 43.3%
[27]
  viability, T/C: 33.2%
[28]
  viability, T/C: 26.9%
[29]
  viability, T/C: 23.5%
[30]
  viability, T/C: 17.9%
